Molecules are shown by their SMILES.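 A five-concentration, 48-hour dose response in 96-well plates underlies each endpoint, interpolated linearly between surrounding concentrations. Here, GI50 denotes the concentration required for 50% inhibition of growth. TGI: concentration producing complete growth inhibition.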

Some test systems named below: A498 renal; DU-145 prostate; HCT-15 colon; HOP-92 NSCLC; MALME-3M melanoma; OVCAR-8 ovarian; RXF 393 renal; SN12C renal; SNB-19 CNS; TK-10 renal.
Holding throughout (test): NCI anticancer screen, dose series, 48 h

In the case of `O=C(CCCCCCc1nc2ccc(Br)cc2[nH]1)NO`, the GI50 in the experiment with A498 renal was 723 nM; in the experiment on DU-145 prostate, 621 nM; in the experiment on HCT-15 colon, 1690 nM; in the experiment with HOP-92 NSCLC it was 241 nM; in the experiment with MALME-3M melanoma, 203 nM; in the experiment with OVCAR-8 ovarian, 275 nM. Further, the GI50 is 240 nM in the experiment with RXF 393 renal, 1300 nM in the experiment on SN12C renal, 689 nM in the experiment with SNB-19 CNS and 596 nM with TK-10 renal. For the same molecule, the TGI in the experiment on A498 renal was 2100 nM; in the experiment on DU-145 prostate, 5840 nM; in the experiment with HCT-15 colon, more than 86500 nM; in the experiment on HOP-92 NSCLC it was 905 nM; in the experiment on MALME-3M melanoma, 813 nM; in the experiment with OVCAR-8 ovarian, 16000 nM. For the same molecule, the TGI is 813 nM in the experiment with RXF 393 renal, more than 35500 nM in the experiment with SN12C renal, more than 30000 nM in the experiment with SNB-19 CNS and 5700 nM with TK-10 renal.

As to `O=c1ccc2nc(-c3ccccc3)nn(-c3ccccc3)c-2c1`, the GI50 with A498 renal was 18100 nM; in the experiment with DU-145 prostate, 1920 nM; in the experiment with HCT-15 colon it was 775 nM; in the experiment on HOP-92 NSCLC it was 1500 nM; in the experiment with MALME-3M melanoma it was 479 nM; in the experiment on OVCAR-8 ovarian, 2210 nM. The GI50 was 1670 nM with RXF 393 renal, 1770 nM with SN12C renal, 16900 nM in the experiment on SNB-19 CNS and 1390 nM with TK-10 renal. Besides, the TGI in the experiment on A498 renal is 33400 nM; in the experiment with DU-145 prostate, 3370 nM; with HCT-15 colon, 2430 nM; in the experiment with HOP-92 NSCLC it was 2930 nM; in the experiment with MALME-3M melanoma, 1670 nM; with OVCAR-8 ovarian, 5590 nM. For the same molecule, the TGI with RXF 393 renal came out at 3060 nM; in the experiment on SN12C renal, 3530 nM; with SNB-19 CNS it was 41100 nM; in the experiment with TK-10 renal, 2700 nM.

`Cc1ncc(C(=O)Nc2ccc(CN3CCN(C)CC3)c(C(F)(F)F)c2)cc1C#Cc1c(N)ncc2ccc(C#N)cc12`: the GI50 in the experiment on A498 renal was 1210 nM; in the experiment with DU-145 prostate it was 976 nM; in the experiment with HCT-15 colon, 547 nM; in the experiment on HOP-92 NSCLC it was 75 nM; in the experiment with MALME-3M melanoma, 16.7 nM; in the experiment on OVCAR-8 ovarian, 4770 nM. Further, the GI50 in the experiment on RXF 393 renal was 327 nM; in the experiment on SN12C renal, 1160 nM; in the experiment with SNB-19 CNS, 6710 nM; with TK-10 renal, 3080 nM. Besides, the TGI came out at 4550 nM in the experiment with A498 renal; 7430 nM in the experiment on DU-145 prostate; 8860 nM in the experiment on HCT-15 colon; 1250 nM with HOP-92 NSCLC; 157 nM with MALME-3M melanoma; 21200 nM in the experiment with OVCAR-8 ovarian. Also, the TGI amounted to 1290 nM in the experiment on RXF 393 renal, 17900 nM in the experiment with SN12C renal, 15600 nM in the experiment on SNB-19 CNS and 12200 nM in the experiment on TK-10 renal.

On to `CC1CN(CCO)CC(C)O1` (stereo not given), for which the TGI in the experiment on A498 renal, in the experiment with DU-145 prostate, in the experiment on HCT-15 colon, in the experiment on HOP-92 NSCLC, in the experiment on MALME-3M melanoma and in the experiment on OVCAR-8 ovarian was more than 100000 nM throughout. For the same molecule, the TGI with RXF 393 renal, with SN12C renal, in the experiment with SNB-19 CNS and in the experiment with TK-10 renal was more than 100000 nM each time.

Turning to `CC[C@]1(O)C[C@@H]2CN(Cc3c([nH]c4ccccc34)[C@@](C(=O)OC)(c3cc4c(cc3OC)N(C)[C@H]3[C@@](O)(C(=O)OC)[C@H](OC(C)=O)[C@]5(CC)[C@@H]6C[C@@H]6CN6CC[C@]43[C@@H]65)C2)C1`, the GI50 was 163 nM in the experiment with A498 renal; 43.3 nM in the experiment with DU-145 prostate; 2780 nM in the experiment on HCT-15 colon; 31.4 nM in the experiment with HOP-92 NSCLC; 2600 nM in the experiment with MALME-3M melanoma; 318 nM with OVCAR-8 ovarian. Further, the GI50 is 111 nM in the experiment on RXF 393 renal, 232 nM with SN12C renal, 106 nM in the experiment with SNB-19 CNS and more than 3690 nM with TK-10 renal. The TGI with A498 renal was more than 2850 nM; with DU-145 prostate, more than 4380 nM; with HCT-15 colon, more than 4380 nM; with HOP-92 NSCLC, more than 4380 nM; in the experiment with MALME-3M melanoma, more than 4380 nM; with OVCAR-8 ovarian, more than 4380 nM. Besides, the TGI in the experiment on RXF 393 renal, in the experiment with SN12C renal, in the experiment on SNB-19 CNS and in the experiment with TK-10 renal was more than 4380 nM throughout.

For `COc1ccc(C2SC(N)=Nc3c2c(C)nn3C(=O)c2ccncc2)cc1` (stereo not given), the TGI in the experiment with A498 renal, with DU-145 prostate, in the experiment on HCT-15 colon, with HOP-92 NSCLC, in the experiment with MALME-3M melanoma and with OVCAR-8 ovarian was more than 100000 nM each time. The TGI in the experiment with RXF 393 renal, in the experiment on SN12C renal, in the experiment with SNB-19 CNS and in the experiment on TK-10 renal was more than 100000 nM throughout.

With `COc1ccccc1/C=C1\COc2ccc(O)c(O)c2C1=O`, the GI50 is 3400 nM in the experiment on A498 renal; 2320 nM with DU-145 prostate; 823 nM in the experiment with HCT-15 colon; 2980 nM with HOP-92 NSCLC; 1380 nM in the experiment on MALME-3M melanoma; 2380 nM with OVCAR-8 ovarian. Moreover, the GI50 in the experiment on RXF 393 renal is 1510 nM; with SN12C renal, 1480 nM; with SNB-19 CNS, 2610 nM; in the experiment with TK-10 renal it was 3080 nM. Further, the TGI was 18000 nM in the experiment with A498 renal; more than 100000 nM with DU-145 prostate; 4540 nM in the experiment on HCT-15 colon; 20800 nM in the experiment with HOP-92 NSCLC; 3720 nM in the experiment on MALME-3M melanoma; more than 100000 nM with OVCAR-8 ovarian. For the same molecule, the TGI with RXF 393 renal was 2970 nM; in the experiment with SN12C renal, 5310 nM; with SNB-19 CNS it was 26200 nM; in the experiment on TK-10 renal, more than 100000 nM.

Values taken from PubChem BioAssay (NCI).
